The test system of one experiment is Aspergillus niger. Description: Antifungal activity against Aspergillus niger assessed as diameter of the zone of inhibition at 20 ug/disk by disk diffusion method. The class given is functional. Particulars: for zone of inhibition at 20 µg/disc: read-out: DIZ. A general note: In agar diffusion tests the substance spreads into inoculated agar from a disc or well.

The test system of another experiment is Alternaria brassicae. Description: Antifungal activity against Alternaria brassicae assessed as diameter of the zone of inhibition at 20 ug/disk by disk diffusion method. The class given is functional. Particulars: for zone of inhibition at 20 µg/disc: read-out: DIZ.
The test system of the next experiment is HeLa. Put plainly: Cytotoxicity against human HeLa cells. It counts as functional, cell-based.
For another experiment, the system named is SW1990. Description: Cytotoxicity against human SW1990 cells. It counts as functional, cell-based.
The subject of the next experiment is NCI-H460. Put plainly: Cytotoxicity against human NCI-H460 cells. It counts as functional, cell-based.

Values after ≈ are worked out from the molar mass of the structure shown. Active and inactive are the calls of the source. No cut-off for these calls is given here.

The term IC50 denotes the concentration at which inhibition is half-maximal. Lower therefore signals higher potency.

Take `CC(=O)O[C@H]1C[C@H]2[C@@H]3[C@@H](O)[C@@H](O)[C@H]4C[C@@H](O)CC[C@]4(C)[C@H]3[C@@H](O)C[C@]2(C)[C@H]1[C@H](C)/C=C/[C@H](C)C(C)C`: the zone of inhibition at 20 µg/disc was 18 mm in the experiment with Aspergillus niger and 8 mm in the experiment with Alternaria brassicae. Further, the IC50 with HeLa stood at 15 µg/mL (≈ 29.6 µM); in the experiment on SW1990, 31 µg/mL (≈ 61.2 µM); in the experiment with NCI-H460, 40 µg/mL (≈ 78.9 µM).
Take `C[C@@H]1[C@H](O)[C@@H](C)/C=C/C=C/C=C/C=C/C=C/C=C/C=C/[C@H](O[C@@H]2O[C@H](C)[C@@H](O)[C@H](N)[C@@H]2O)C[C@@H]2O[C@](O)(C[C@@H](O)C[C@@H](O)[C@H](O)CC[C@@H](O)C[C@@H](O)CC(=O)O[C@H]1C)C[C@H](O)[C@H]2C(=O)O` [AMPHOTERICIN B]: the zone of inhibition at 20 µg/disc in the experiment on Aspergillus niger was found to be 24 mm; in the experiment on Alternaria brassicae it was 16 mm.
Consider `CC(=O)O[C@H]1C[C@H]2[C@H]3[C@H]([C@@H](O)C[C@]2(C)[C@H]1[C@H](C)/C=C/[C@H](C)C(C)C)[C@@]1(C)CC[C@H](O)CC1=C[C@@H]3O`, for which the result in the experiment with Aspergillus niger and in the experiment on Alternaria brassicae was inactive.
For the compound `CC(=O)O[C@H]1C[C@H]2[C@H]3[C@H]([C@@H](O)C[C@]2(C)[C@H]1[C@H](C)/C=C/[C@H](C)C(C)C)[C@@]1(C)CC[C@H](O)C[C@@H]1C(=O)[C@@H]3O` [ANICEQUOL], the result in the experiment with Aspergillus niger was Active. In the experiment with Alternaria brassicae, the zone of inhibition at 20 µg/disc is 6 mm.

(Values after ChEMBL document CHEMBL1770064, “Penicisteroids A and B, antifungal and cytotoxic polyoxygenated steroids from the marine alga-derived endophytic fungus Penicillium chrysogenum QEN-24S” (Bioorg Med Chem Lett, 2011).)
